These results are taken from PMC10238538, “Human soluble CD39 displays substrate inhibition in a substrate-specific manner” (Scientific Reports, 2023).

Test [1] concerns the target T1, Recombinant Human CD39/ENTPD1 Protein (Homo sapiens, UniProt P49961).
T1 construct: purchased R&D System (Biotechne) 4397-EN-010
T1 sequence (P49961 38-478 limits assumed): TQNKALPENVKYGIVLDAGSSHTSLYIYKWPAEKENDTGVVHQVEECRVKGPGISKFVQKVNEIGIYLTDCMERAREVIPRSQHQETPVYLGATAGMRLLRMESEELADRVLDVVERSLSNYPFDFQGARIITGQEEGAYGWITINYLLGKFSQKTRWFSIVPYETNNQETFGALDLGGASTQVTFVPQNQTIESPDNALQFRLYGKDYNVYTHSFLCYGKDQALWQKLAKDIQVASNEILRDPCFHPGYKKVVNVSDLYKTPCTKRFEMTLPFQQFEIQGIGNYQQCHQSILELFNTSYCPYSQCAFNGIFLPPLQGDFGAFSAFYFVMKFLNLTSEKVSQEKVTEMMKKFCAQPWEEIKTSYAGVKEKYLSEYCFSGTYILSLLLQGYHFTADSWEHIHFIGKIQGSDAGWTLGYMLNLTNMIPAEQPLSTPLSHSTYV
Briefly: CD39 activity with varying substrate concentration (phosphate release, Malachite Green), fitted to substrate inhibition model. Format: biochemical. Particulars: for Vmax: 0.02 µg/ml enzyme, 5 mM CaCl2, 30 min, room temperature; for kcat: Vmax divided by CD39 concentration; for substrate inhibition at high substrate concentrations: result in words.

Test [2] addresses T1, Recombinant Human CD39/ENTPD1 Protein. The arrangement: method as in PMID 23425137. Particulars: result in words; cited from earlier work.
Test [3] shares this target. Briefly: Inhibition of CD39 activity by reaction products (nucleoside monophosphates), Malachite Green phosphate assay. Type of test: biochemical.
Setting [4] is: compound as substrate, Haldane substrate inhibition model.
[5] abbreviates: substrate inhibition constant, compound as substrate, Haldane substrate inhibition model.

Each structure is given as a SMILES string.

In general, Km refers to the substrate concentration at which the rate is half of its maximum. One may read the Vmax as the rate approached at saturating substrate. One may read the kcat as the maximal rate divided by the concentration of active sites. As usually defined, the IC50 is the midpoint of a concentration-inhibition curve.

For the compound `CSc1nc(N)c2ncn([C@@H]3O[C@H](COP(=O)(O)OP(=O)(O)O)[C@@H](O)[C@H]3O)c2n1` [2-MeS-ADP, 2-methylthio-ADP], in test [1] (setting [4]), the Km came out at 9.36 µM and the Vmax is 0.021 nmol/min. In test [1] (compound as substrate), the kcat was determined as 17.8 s⁻¹ and the “substrate inhibition at high substrate concentrations” value (“substrate inhibition” for short) is given as “no substrate inhibition”.

Consider `CSc1nc(N)c2ncn([C@@H]3O[C@H](COP(=O)(O)OP(=O)(O)OP(=O)(O)O)[C@@H](O)[C@H]3O)c2n1` [2-MeS-ATP], for which, in test [1] (setting [4]), the Km was 5.37 µM and the Vmax stood at 0.018 nmol/min. The kcat in test [1] (compound as substrate) stood at 15.3 s⁻¹. For the same compound, in test [1] (setting [5]), the Ki is 1820 µM.

Consider `CCCCSc1nc2c(N)ncnc2n1[C@@H]1O[C@H](COP(=O)(O)OP(=O)(O)O)[C@@H](O)[C@H]1O` [8-BuS-ADP], for which the “hydrolysis by CD39” value in test [2] is reported as “resistant to hydrolysis by CD39”.

For the compound `CCCCSc1nc2c(N)ncnc2n1C1OC(COP(=O)(O)OP(=O)(O)OP(=O)(O)O)C(O)C1O` (centres unmarked) [8-butylthio (BuS)-ATP], in test [2], the “hydrolysis by CD39” value is listed as “resistant to hydrolysis by CD39”.

With `Nc1ncnc2c1ncn2[C@@H]1O[C@H](COP(=O)(O)OP(=O)(O)O)[C@@H](O)[C@H]1O` [ADP], in test [1] (setting [4]), the Km came out at 5.71 µM and the Vmax worked out at 0.021 nmol/min. For the same compound, the kcat in test [1] (compound as substrate) came out at 17.8 s⁻¹. In test [1] (setting [5]), the Ki came out at 358 µM.

On to `Nc1ncnc2c1ncn2[C@@H]1O[C@H](COP(=O)(O)OP(=O)(O)OP(=O)(O)O)[C@@H](O)[C@H]1O` [ATP], for which, in test [1] (setting [4]), the Km worked out at 4.01 µM and the Vmax came out at 0.020 nmol/min. Besides, the kcat in test [1] (compound as substrate) worked out at 17.0 s⁻¹. Besides, the Ki in test [1] (setting [5]) turned out to be 818 µM.

In the case of `Nc1nc2c(ncn2[C@@H]2O[C@H](COP(=O)(O)OP(=O)(O)O)[C@@H](O)[C@H]2O)c(=O)[nH]1` [GDP], in test [1] (setting [4]), the Km is 26.6 µM and the Vmax came to 0.022 nmol/min. The kcat in test [1] (compound as substrate) is 18.7 s⁻¹. In addition, the Ki in test [1] (substrate inhibition constant as stated in text) was over 1000 µM.

As to `Nc1nc2c(ncn2[C@@H]2O[C@H](COP(=O)(O)O)[C@@H](O)[C@H]2O)c(=O)[nH]1` [GMP], the IC50 in test [3] (24 μM GTP as substrate) is about 350 µM.

As to `Nc1nc2c(ncn2[C@@H]2O[C@H](COP(=O)(O)OP(=O)(O)OP(=O)(O)O)[C@@H](O)[C@H]2O)c(=O)[nH]1` [GTP], in test [1] (setting [4]), the Km stood at 20.6 µM and the maximal velocity (Vmax) is 0.021 nmol/min. In test [1] (compound as substrate), the kcat was 17.8 s⁻¹ and the “substrate inhibition” value is on record as “Substrate inhibition was seen”. The Ki in test [1] (setting [5]) was determined as 680 µM.

As for `O=c1ccn([C@@H]2O[C@H](COP(=O)(O)OP(=O)(O)O)[C@@H](O)[C@H]2O)c(=O)[nH]1` [UDP], in test [1] (setting [4]), the Michaelis constant (Km) was 13.3 µM and the Vmax is 0.025 nmol/min. For the same compound, in test [1] (compound as substrate), the kcat was 21.2 s⁻¹ and the “substrate inhibition” value is “almost no substrate inhibition”.

For `O=c1ccn([C@@H]2O[C@H](COP(=O)(O)O)[C@@H](O)[C@H]2O)c(=O)[nH]1` [UMP], the IC50 in test [3] (24 μM UTP as substrate) was about 165 µM.

Regarding `O=c1ccn([C@@H]2O[C@H](COP(=O)(O)OP(=O)(O)OP(=O)(O)O)[C@@H](O)[C@H]2O)c(=O)[nH]1` [UTP], in test [1] (setting [4]), the Km came out at 9.38 µM and the maximum rate (Vmax) is listed as 0.024 nmol/min. In addition, in test [1] (compound as substrate), the kcat came out at 20.4 s⁻¹ and the “substrate inhibition” value is reported as “weak substrate inhibition”. Moreover, the Ki in test [1] (setting [5]) was 1960 µM.
